Consider 22 compounds from US7498347B2, “Hydroxycarbonylphenyl substituted 4-(aminomethyl)-piperidine benzamides as 5HT4 antagonists” (Janssen Pharmaceutica, N.V., priority 2004, dated 2009).

The nature of series [1]: Metabolic stability in liver microsomes, LC-MS analysis. The class given is in vitro ADME. The note with it: compound 5 μM, microsomes 1 mg/ml, NADPH-generating system, 60 minutes at 37 degrees Celsius. The protocol:
Sub-cellular tissue preparations were made according to Gorrod et al. (Xenobiotica 5: 453-462, 1975) by centrifugal separation after mechanical homogenization of tissue. Liver tissue was rinsed in ice-cold 0.1 M Tris-HCl (pH 7.4) buffer to wash excess blood. Tissue was then blotted dry, weighed and chopped coarsely using surgical scissors. The tissue pieces were homogenized in 3 volumes of ice-cold 0.1 M phosphate buffer (pH 7.4).
Tissue homogenates were centrifuged at 9000×g for 20 minutes at 4° C. The resulting supernatant was stored at −80° C. and is designated ‘S9’.
The S9 fraction can be further centrifuged at 100.000×g for 60 minutes (4° C.). The resulting supernatant was carefully aspirated, aliquoted and designated ‘cytosol’. The pellet was re-suspended in 0.1 M phosphate buffer (pH 7.4) in a final volume of 1 ml per 0.5 g original tissue weight and designated ‘microsomes’.
All sub-cellular fractions were aliquoted, immediately frozen in liquid nitrogen and stored at −80° C. until use.
For the samples to be tested, the incubation mixture contained PBS (0.1M), compound (5 μM), microsomes (1 mg/ml) and a NADPH-generating system (0.8 mM glucose-6-phosphate, 0.8 mM magnesium chloride and 0.8 Units of glucose-6-phosphate dehydrogenase). Control samples contained the same material but the microsomes were replaced by heat inactivated (10 minutes at 95 degrees Celsius) microsomes. Recovery of the compounds in the control samples was always 100%.
The mixtures were preincubated for 5 minutes at 37 degrees Celsius. The reaction was started at time point zero (t=0) by addition of 0.8 mM NADP and the samples were incubated for 60 minutes (t=60). The reaction was terminated by the addition of 2 volumes of DMSO. Then the samples were centrifuged for 10 minutes at 900×g and the supernatants were stored at room temperature for no longer as 24 hours before analysis. All incubations were performed in duplo. Analysis of the supernatants was performed with LC-MS analysis. Elution of the samples was performed on a Xterra MS C18 (50×4.6 mm, 5 μm, Waters, US). An Alliance 2790 (Supplier: Waters, US) HPLC system was used. Elution was with buffer A (25 mM ammoniumacetate (pH 5.2) in H2O/acetonitrile (95/5)), solvent B being acetonitrile and solvent C methanol at a flow rate of 2.4 ml/min. The gradient employed was increasing the organic phase concentration from 0% over 50% B and 50% C in 5 min up to 100% B in 1 minute in a linear fashion and organic phase concentration was kept stationary for an additional 1.5 minutes. Total injection volume of the samples was 25 μl.
A Quatro triple quadrupole mass spectrometer fitted with and ESP source was used as detector. The source and the desolvation temperature were set at 120 and 350° C. respectively and nitrogen was used as nebuliser and drying gas. Data were acquired in positive scan mode (single ion reaction). Cone voltage was set at 10 V and the dwell time was 1 second.
Metabolic stability was expressed as % metabolism of the compound after 60 minutes (equation given as example) of incubation in the presence of active microsomes (E(act))
On the technique in general: Microsomes from liver hold many membrane-bound enzymes, among them those of drug oxidation.

The next series concerns the target T1, h5-HT4b (Homo sapiens, UniProt Q13639).
T1 construct: expressed in transfected cells; host or cells: HEK 293 (clone 9), membrane preparation
Kind of series: 5HT4 antagonism: [3H]GR113808 binding to membranes of h5-HT4b-HEK 293 clone 9 cells. The note with it: displacement of [3H]GR113808 0.1 nM, h5-HT4b-HEK 293 membranes, 30 min at 25° C.; read-out: pIC50 (5HT4 antagonistic data) (converted). The protocol:
h5-HT4b-HEK 293 clone 9 cells were cultured in 150 mm Petri dishes and washed twice with cold PBS. The cells were then scraped from the plates and suspended in 50 mM Tris-HCl buffer, pH 7.4 and harvested by centrifugation at 23,500 rpm for 10 minutes. The pellet was resuspended in 5 mM Tris-HCl, pH 7.4 and homogenized with an Ultra Turrax homogenizer. The membranes were collected by centrifugation at 30,000 rpm for 20 min, resuspended in 50 mM Tris-HCl pH 7.4 and stored at −80° C. For the experiment, assay mixtures (0.5 ml) contained 50 μl of the tritiated ligand (5-HT4 antagonist [^3H]GR113808 0.1 nM) and 0.4 ml membrane preparation (15 μg protein/ml). 50 μl of 10% DMSO was added for total binding. 50 μl of 1 μM of (+)-trans-(1-butyl-3-hydroxy-4-piperidinyl)methyl 8-amino-7-chloro-2,3-dihydro-1,4-benzodioxin-5-carboxylate (a proprietary 5HT4 agonist of Janssen Pharmaceutica) was added for determination of non-specific binding.
The [^3H]GR113808 assay buffer was 50 mM HEPES-NaOH, pH 7.4. The mixtures were incubated for 30 min at 25° C. The incubation was terminated by filtration over a Unifilter 96 GF/B presoaked in 0.1% polyethylenimine, followed by six washing steps with 50 mM HEPES-NaOH, pH 7.4.
(In general: Displacement assays read how much labelled ligand stays bound in the presence of the test substance.)

Molecules are shown by their SMILES. Where a name gives a salt, the structure may show the parent alone.

T1 sequence (Q13639 whole entry): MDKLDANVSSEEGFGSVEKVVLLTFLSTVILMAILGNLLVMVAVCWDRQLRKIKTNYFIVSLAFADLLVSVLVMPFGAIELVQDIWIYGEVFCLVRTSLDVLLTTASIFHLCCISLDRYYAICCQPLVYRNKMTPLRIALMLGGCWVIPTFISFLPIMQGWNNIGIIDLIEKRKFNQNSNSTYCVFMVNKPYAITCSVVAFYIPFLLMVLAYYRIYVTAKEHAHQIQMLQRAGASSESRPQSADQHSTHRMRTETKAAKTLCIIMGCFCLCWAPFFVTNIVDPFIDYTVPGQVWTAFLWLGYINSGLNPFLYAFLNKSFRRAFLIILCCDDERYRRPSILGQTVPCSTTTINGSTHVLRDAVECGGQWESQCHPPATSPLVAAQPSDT

`O=C(O)c1ccc(OCCCN2CCC(CNC(=O)c3cc(Cl)c(Cl)c4c3OCCCO4)C(O)C2)cc1` (stereo not shown) (as salt: HCl) [compound 16] had a melting point of 256 °C.

`Cc1ccc(C(=O)NC[C@@H]2CCN(CCOc3ccc(C(=O)O)cc3)C[C@H]2O)c2c1OCCCO2` (hydrate or solvate) [compound 8] showed a melting point greater than 120 °C.

Compound `O=C(O)c1ccc(OCCCN2CC[C@@H](CNC(=O)c3cc(Cl)c(Br)c4c3OCCCO4)[C@H](O)C2)cc1` (relative stereo) (as salt: HCl) (hydrate or solvate) [compound 17] showed a melting point of 268 °C.

In turn, `O=C(O)c1ccccc1OCCCN1CC[C@@H](CNC(=O)c2cc(Cl)cc3c2OCCCO3)[C@H](O)C1` (relative stereo) [compound 7] registered a melting point of 148 °C. The “% metabolized (% metabolised compound after 60 minutes)” value (from here on “% metabolized”) in series [1] amounted to 14%. Moreover, the IC50 at h5-HT4b was 79.4 nM.

`Cc1cc2c(c(C(=O)NC[C@@H]3CCN(CCCOc4ccc(C(=O)O)cc4)C[C@H]3O)c1)OCCCO2` (relative stereo) [compound 13] gave a melting point of 118 °C. Further, the IC50 at h5-HT4b is 20.9 nM.

Take `O=C(O)c1ccc(OCCCN2CC[C@@H](CNC(=O)c3cc(Cl)c(Br)c4c3OCCCO4)[C@H](O)C2)cc1` (relative stereo) [compound 17]: the “% metabolized” value in series [1] came to 6%. In addition, the IC50 on h5-HT4b was 5.62 nM.

In turn, `CO[C@@H]1CN(CCCOc2ccc(C(=O)O)cc2)CC[C@H]1CNC(=O)c1cc(Cl)c(Cl)c2c1OCCCO2` (relative stereo) [compound 20] returned a melting point of 200 °C. The IC50 on h5-HT4b is 7.76 nM.

Take `Cc1cc2c(c(C(=O)NC[C@@H]3CCN(CCCOc4ccccc4C(=O)O)C[C@H]3O)c1)OCCCO2` [Co. No. 1]: the melting point was determined as 114 °C.

Consider `Cc1cc2c(c(C(=O)NC[C@@H]3CCN(CCCOc4ccccc4C(=O)O)C[C@H]3O)c1)OCCCO2` [compound 1], for which, at h5-HT4b, the IC50 was 120 nM.

As for `Cc1cc2c(c(C(=O)NC[C@@H]3CCN(CCCCOc4ccc(C(=O)O)cc4)C[C@H]3O)c1)OCCCO2` [compound 2], the melting point was determined as 188 °C. For the same compound, the “% metabolized” value in series [1] is 6%. Besides, the IC50 at h5-HT4b is 9.55 nM.

`Cc1ccc(C(=O)NC[C@@H]2CCN(CCCCOc3ccc(C(=O)O)cc3)C[C@H]2O)c2c1OCCCO2` [compound 3] registered a melting point of 170 °C. For the same compound, the “% metabolized” value in series [1] is reported as 16%. Moreover, on h5-HT4b, the IC50 is 4.9 nM.

Consider `O=C(O)c1ccc(OCCN2CC[C@@H](CNC(=O)c3cc(Cl)cc4c3OCCCO4)[C@H](O)C2)cc1` [compound 4], for which the melting point was in the range of 220 to 225 °C. In addition, the IC50 on h5-HT4b was 14.5 nM.

The compound `O=C(O)c1ccc(OCCCCN2CC[C@@H](CNC(=O)c3cc(Cl)cc4c3OCCCO4)[C@H](O)C2)cc1` [compound 5] showed a melting point of 190 °C. In addition, the “% metabolized” value in series [1] was determined as 15%. In addition, the IC50 on h5-HT4b was 5.13 nM.

The compound `Cc1cc2c(c(C(=O)NC[C@@H]3CCN(CCOc4ccc(C(=O)O)cc4)C[C@H]3O)c1)OCCCO2` [compound 6] had a melting point of 175 °C. The IC50 at h5-HT4b was 63.1 nM.

As to `Cc1ccc(C(=O)NC[C@@H]2CCN(CCOc3ccc(C(=O)O)cc3)C[C@H]2O)c2c1OCCCO2` [compound 8], the IC50 at h5-HT4b is 42.7 nM.

The compound `O=C(O)c1ccc(OCCCN2CCC(CNC(=O)c3cc(Cl)cc4c3OCCCO4)C(O)C2)cc1` (stereo not shown) [compound 9] came in with a melting point of 122 °C. Moreover, the “% metabolized” value in series [1] came to 7.5%. For the same compound, the IC50 at h5-HT4b is 11.2 nM.

The compound `Cc1ccc(C(=O)NC[C@@H]2CCN(CCCOc3cccc(C(=O)O)c3)C[C@H]2O)c2c1OCCCO2` [compound 11] had a melting point of 120 °C. Further, the “% metabolized” value in series [1] is 1%. The IC50 at h5-HT4b was 8.51 nM.

In turn, `Cc1cc2c(c(C(=O)NCC3CCN(CCCOc4cccc(C(=O)O)c4)CC3O)c1)OCCCO2` (stereo not shown) [compound 12] came in with a melting point of 122 °C. For the same compound, the “% metabolized” value in series [1] is 0%. Besides, the IC50 at h5-HT4b is 23.4 nM.

For `Cc1ccc(C(=O)NC[C@@H]2CCN(CCCOc3ccc(C(=O)O)cc3)C[C@H]2O)c2c1OCCCO2` [compound 14], the melting point was 155 °C. In series [1], the “% metabolized” value came to 0%. The IC50 on h5-HT4b was 8.71 nM.

As for `O=C(O)c1ccc(OCCCN2CCC(CNC(=O)c3cc(Cl)c(Cl)c4c3OCCCO4)C(O)C2)cc1` (stereo not shown) [compound 16], the “% metabolized” value in series [1] came to 3%. The IC50 at h5-HT4b was 7.59 nM.

Turning to `COc1ccc(C(=O)NCC2CCN(CCCOc3ccc(C(=O)O)cc3)CC2OC)c2c1OCCCO2` (stereo not shown) [compound 21], the melting point is 179.4 to 189.2 °C. In addition, the IC50 at h5-HT4b was 66.1 nM.

Turning to `COC1CN(CCCOc2ccc(C(=O)O)cc2)CCC1CNC(=O)c1cc(C)cc2c1OCCCO2` (stereo not shown) [compound 22], the “% metabolized” value in series [1] is 6%. Besides, the IC50 at h5-HT4b is 13.5 nM.

Usually melting point stands for the temperature, or range, at which the solid turns liquid.
